Like-named read-outs stand apart in the source and are kept apart here.
Legend:
[1] = system: Key Broadleaf Weed and Crop Species; experiment: Post-Emergent Test II (Table 5); type: in vivo; settings: post-emergence, 336 h; for pest or weed control at 70 g/ha: application rate 70 (kg ai/ha; footnote: g ai/ha); for pest or weed control at 140 g/ha: application rate 140 (kg ai/ha; footnote: g ai/ha)
Procedure, shortened: (§1)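 Plants at first or second true-leaf stage, grown 7-21 days in greenhouse, were sprayed post-emergence at 187 L/ha with compounds in acetone/DMSO/water/crop oil/surfactant mixture at the high rate and ½× to 1/16× dilutions. Injury scored visually after 14 days, 0 (none) to 100% (complete kill), versus untreated plants.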

[2] = system: Key Grass and Sedge Weeds as well as Grass Crops; experiment: Post-Emergent Test II (Table 6); type: in vivo; settings: post-emergence, 336 h, 14 days after application; for pest or weed control at 70 g/ha: 70 g ai/ha; for pest or weed control at 140 g/ha: 140 g ai/ha
Procedure, shortened: as §1

[3] = Abutilon theophrasti, ABUTH: velvetleaf (Abutilon theophrasti), read-out: Visual Growth Reduction (%) 14 Days After Application ABUTH
[4] = Amaranthus retroflexus, AMARE: redroot pigweed (Amaranthus retroflexus), read-out: Visual Growth Reduction (%) 14 Days After Application AMARE
[5] = Brassica napus, BRSSS: oilseed rape, canola (Brassica napus), read-out: Visual Growth Reduction (%) 14 Days After Application BRSSS
[6] = Chenopodium album, CHEAL: lambsquarters (Chenopodium album), read-out: Visual Growth Reduction (%) 14 Days After Application CHEAL
[7] = Euphorbia heterophylla, EPHHL: wild poinsettia (Euphorbia heterophylla), read-out: Visual Growth Reduction (%) 14 Days After Application EPHHL
[8] = Helianthus annuus, HELAN: sunflower (Helianthus annuus), read-out: Visual Growth Reduction (%) 14 Days After Application HELAN
[9] = Viola tricolor, VIOTR: wild pansy (Viola tricolor), read-out: Visual Growth Reduction (%) 14 Days After Application VIOTR
[10] = CYPSS, read-out: Visual Growth Reduction (%) 14 Days After Application CYPSS
[11] = DIGSA: crabgrass (Digitaria sanguinalis), read-out: Visual Growth Reduction (%) 14 Days After Application DIGSA
[12] = ECHSS, read-out: Visual Growth Reduction (%) 14 Days After Application ECHSS
[13] = ORYSS (crop), read-out: Visual Growth Reduction (%) 14 Days After Application ORYSS
[14] = SETFA: giant foxtail (Setaria faberi), read-out: Visual Growth Reduction (%) 14 Days After Application SETFA
[15] = SORVU: grain sorghum (Sorghum vulgare), read-out: Visual Growth Reduction (%) 14 Days After Application SORVU
[16] = TRZSS (crop), read-out: Visual Growth Reduction (%) 14 Days After Application TRZSS
[17] = ZEAMX: maize, corn (Zea mays), read-out: Visual Growth Reduction (%) 14 Days After Application ZEAMX

| SMILES | pest or weed control at 70 g/ha [1, 3] | pest or weed control at 140 g/ha [1, 3] | pest or weed control at 70 g/ha [1, 4] | pest or weed control at 70 g/ha [1, 5] | pest or weed control at 140 g/ha [1, 5] | pest or weed control at 70 g/ha [1, 6] | pest or weed control at 140 g/ha [1, 6] | pest or weed control at 70 g/ha [1, 7] | pest or weed control at 140 g/ha [1, 7] | pest or weed control at 70 g/ha [1, 8] | pest or weed control at 140 g/ha [1, 8] | pest or weed control at 70 g/ha [1, 9] | pest or weed control at 140 g/ha [1, 9] | pest or weed control at 70 g/ha [2, 10] | pest or weed control at 140 g/ha [2, 10] | pest or weed control at 70 g/ha [2, 11] | pest or weed control at 140 g/ha [2, 11] | pest or weed control at 70 g/ha [2, 12] | pest or weed control at 140 g/ha [2, 12] | pest or weed control at 70 g/ha [2, 13] | other results |
| --- | --- | --- | --- | --- | --- | --- | --- | --- | --- | --- | --- | --- | --- | --- | --- | --- | --- | --- | --- | --- | --- |
| COC(=O)c1nc(-c2ccc(Cl)c(Cl)c2C)cc(N)c1Cl [Compound 77] | 95 to 100% | 95 to 100% | 95 to 100% | 95 to 100% | 95 to 100% | 95 to 100% | 95 to 100% | 0 to 29% | 0 to 29% | 45 to 59% | 60 to 74% | 0 to 29% | 0 to 29% | 0 to 29% | 0 to 29% | 0 to 29% | 0 to 29% | 0 to 29% | 0 to 29% | 0 to 29% | pest or weed control at 140 g/ha [1, 4]: 95 to 100%; pest or weed control at 140 g/ha [2, 13]: 0 to 29%; pest or weed control at 70 g/ha [2, 14]: 0 to 29%; pest or weed control at 140 g/ha [2, 14]: 0 to 29%; pest or weed control at 70 g/ha [2, 15]: 0 to 29%; pest or weed control at 140 g/ha [2, 15]: 0 to 29%; pest or weed control at 70 g/ha [2, 16]: 0 to 29%; pest or weed control at 140 g/ha [2, 16]: 0 to 29%; pest or weed control at 70 g/ha [2, 17]: 0 to 29%; pest or weed control at 140 g/ha [2, 17]: 0 to 29%; melting point: 136 to 142 °C |
| COC(=O)c1nc(-c2ccc(OC)nc2)c(F)c(N)c1Cl [Compound 62] | 95 to 100% | 95 to 100% | 95 to 100% | 60 to 74% | 60 to 74% | 95 to 100% | 95 to 100% | 95 to 100% | 95 to 100% | 95 to 100% | 95 to 100% | 0 to 29% | 0 to 29% | 0 to 29% | 30 to 44% | 75 to 84% | 60 to 74% | 95 to 100% | 95 to 100% | 0 to 29% | pest or weed control at 140 g/ha [1, 4]: 95 to 100%; pest or weed control at 140 g/ha [2, 13]: 0 to 29%; pest or weed control at 70 g/ha [2, 14]: 60 to 74%; pest or weed control at 140 g/ha [2, 14]: 85 to 94%; pest or weed control at 70 g/ha [2, 15]: 60 to 74%; pest or weed control at 140 g/ha [2, 15]: 75 to 84%; pest or weed control at 70 g/ha [2, 16]: 45 to 59%; pest or weed control at 140 g/ha [2, 16]: 45 to 59%; pest or weed control at 70 g/ha [2, 17]: 95 to 100%; pest or weed control at 140 g/ha [2, 17]: 95 to 100%; melting point: 168 to 169 °C |
| COc1nc(Cl)ccc1-c1cc(N)c(Cl)c(C(=O)O)n1 [Compound 57] | 85 to 94% | 85 to 94% | 95 to 100% | 75 to 84% | 75 to 84% | 85 to 94% | 85 to 94% | 0 to 29% | 0 to 29% | 85 to 94% | 85 to 94% | 0 to 29% | 0 to 29% | 0 to 29% | 0 to 29% | 0 to 29% | 0 to 29% | 0 to 29% | 0 to 29% | 0 to 29% | pest or weed control at 140 g/ha [1, 4]: 95 to 100%; pest or weed control at 140 g/ha [2, 13]: 0 to 29%; pest or weed control at 70 g/ha [2, 14]: 0 to 29%; pest or weed control at 140 g/ha [2, 14]: 0 to 29%; pest or weed control at 70 g/ha [2, 15]: 0 to 29%; pest or weed control at 140 g/ha [2, 15]: 0 to 29%; pest or weed control at 70 g/ha [2, 16]: 0 to 29%; pest or weed control at 140 g/ha [2, 16]: 0 to 29%; pest or weed control at 70 g/ha [2, 17]: 0 to 29%; pest or weed control at 140 g/ha [2, 17]: 0 to 29%; melting point: 170 to 171 °C |
| COC(=O)c1nc(-c2ccc(OC)nc2Cl)c(F)c(N)c1Cl [Compound 88, methyl 4-amino-2′,5-dichloro-3-fluoro-6′-methoxy-[2,3′-bipyridine]-6-carboxylate] | 75 to 84% | 95 to 100% | 85 to 94% | 85 to 94% | 85 to 94% | 95 to 100% | 95 to 100% | 0 to 29% | 0 to 29% | 75 to 84% | 85 to 94% | 0 to 29% | 0 to 29% | 0 to 29% | 0 to 29% | 0 to 29% | 0 to 29% | 0 to 29% | 0 to 29% | 0 to 29% | pest or weed control at 140 g/ha [2, 13]: 0 to 29%; pest or weed control at 70 g/ha [2, 14]: 0 to 29%; pest or weed control at 140 g/ha [2, 14]: 45 to 59%; pest or weed control at 70 g/ha [2, 15]: 0 to 29%; pest or weed control at 140 g/ha [2, 15]: 0 to 29%; pest or weed control at 70 g/ha [2, 16]: 0 to 29%; pest or weed control at 140 g/ha [2, 16]: 0 to 29%; pest or weed control at 70 g/ha [2, 17]: 0 to 29%; pest or weed control at 140 g/ha [2, 17]: 0 to 29%; melting point: 164 to 165 °C |

Source: patent US10765114B2, “4-amino-6-(pyridyl and 2-substitutedphenyl)-picolinates and 6-amino-2-(pyridyl and 2-substitutedphenyl)-pyrimidine-4-carboxylates and their use as herbicides” (Dow AgroSciences LLC, priority 2013, dated 2020)
